Source: patent US11833185B2, “Anti-neurodegenerative therapeutic, method of manufacture, and use” (UNIVERSITY OF KENTUCKY RESEARCH FOUNDATION, priority 2017, dated 2023)
Read-outs that look alike come from different tables or passages of the source. Where a SMILES comes first, the peptide text is derived from it.

What was measured:
[1] = system: striatum levels of DA, DOPAC, HVA, 5-HT, 5-HIAA, and NE; test: Striatum neurochemistry (RP-HPLC EC) after repeated intranasal administration; assay type: in vivo, normal Fischer 344 rats; conditions: for Turnover ratio 5-H1AA/5-HT / Turnover ratio (HVA + DOPAC)/DA / Turnover ratio DOPAC/DA / Turnover ratio HVA/DA / 5-HIAA / 5-HT / DA / DOPAC / HVA / NE: 5 days a week for 3 weeks, combined left and right striatum, mean; for 5-HIAA / 5-HT / DA / DOPAC / HVA / NE: wet tissue weight
Description: (§1) Groups of 12, 3 month old Fischer 344 rats were intranasally dosed 50 microliters (4 single 12.5 microliter administrations, 2 per nare, 5 minutes between each nare administration) of either vehicle, 1.1 mg/mL, or 3.5 mg/mL of AV6403 [Leu-Ala-Pro-Ala-Glu-Asp-NH2] (SEQ ID NO: 1) once a day for 5 days a week, for 3 weeks (5 consecutive days of dosing, 2 off days, repeated total of 3 times). Following day 21, rats were euthanized and brain tissue was recovered and sections removed and weighed for neurochemical analysis by Reverse-Phase High Pressure Liquid Chromatography Electrochemical detection (RP-HPLC EC).
Dopamine [DA], its major metabolites 3,4-Dihydroxy-Phenylacetic Acid (DOPAC) and Homovanillic Acid (HVA), 5-hydroxytryptamine (5-HT, serotonin), its metabolite 5-hydroxyindoleacetic acid (5-HIAA), and norepinephrine (NE) were measured in the striatum and substantia nigra (SN) for each group. In the striatum [TABLE 1], 1.1 mg/mL dosing of AV6403 led to a 20% and 25% reduction of DA and HVA levels [FIG. 1A-FIG. 1C], respectively, resulting in an increase in dopamine turnover (22% [DOPAC/DA] and 16% [[(HVA+DOPAC)/DA]), relative to saline vehicle treated rats [FIG. 2A-FIG. 2B]. […] NE levels were reduced in the striatum with about a 36% reduction for AV6403 1.1 mg/mL dosage versus vehicle [TABLE 1].
(§2) Groups of 12, 3 month old Fischer 344 rats were intranasally dosed 50 microliters (4 single 12.5 microliter administrations, 2 per nare, 5 minutes between each nare administration) of either vehicle, 1.2 mg/mL, or 3.6 mg/mL of AV7624 [Glu-Ala-Pro-Phe-Glu-Asp-NH2] once a day for 5 days a week, for 3 weeks (5 consecutive days of dosing, 2 off days, repeated total of 3 times). Following day 21, rats were euthanized and brain tissue was recovered and sections removed and weighed for neurochemical analysis by RP-HPLC EC.
DA, DOPAC, HVA, 5-HT, 5-HIAA, and NE were measured in the striatum and SN for each group. In the striatum [TABLE 5], 3.6 mg/mL dosing of AV7624 led to an approximate 18%, 39%, and 30% reduction of DA, DOPAC, and HVA levels [FIG. 6A-FIG. 6C], respectively, resulting in an about 18% decrease in dopamine turnover ([DOPAC/DA] and [(HVA+DOPAC)/DA]), relative to saline vehicle treated rats [FIG. 7A-FIG. 7B]. […] NE levels were reduced in the striatum in a dose dependent manner, with about a 32% reduction for the AV7624 3.6 mg/mL dosage versus vehicle [TABLE 5]

[2] = system: substantia nigra levels of DA, DOPAC, HVA, 5-HT, 5-HIAA, and NE; test: Substantia nigra neurochemistry (RP-HPLC EC) after repeated intranasal administration; assay type: in vivo, normal Fischer 344 rats; conditions: for Turnover ratio 5-HIAA/5-HT / Turnover ratio (HVA + DOPAC)/DA / Turnover ratio DOPAC/DA / Turnover ratio HVA/DA / 5-HIAA / 5-HT / DA / DOPAC / HVA / NE: 5 days a week for 3 weeks, combined left and right substantia nigra, mean; for 5-HIAA / 5-HT / DA / DOPAC / HVA / NE: wet tissue weight
Description: as §1
In the SN [TABLE 3], treatment of AV6403 led to about a 13% increase in DOPAC and a 11% reduction of HVA, depending on the dosage, [FIG. 4A-FIG. 4C] resulting in an increase in dopamine turnover (20% [DOPAC/DA] for 3.5 mg/mL dosage; 23% [(HVA+DOPAC)/DA] for 1.1 mg/mL) relative to saline vehicle treated rats [FIG. 5A-FIG. 5B]. Treatment with 1.1 mg/mL AV6403 decreased 5-HT by 10% in the SN, resulting in a 16% increase in serotonin turnover [5-HIAA/5-HT] [TABLE 4]. The higher dosage (3.5 mg/mL AV6403) increased NE levels in the SN by about 23% versus vehicle treated rats, respectively [TABLE 3].
as §2
In the SN [TABLE 7], treatment with 3.6 mg/mL AV7624 led to about a 23%, 22%, and a 6% decrease in DA, DOPAC, and HVA [FIG. 9A-FIG. 9C], relative to saline vehicle treated rats, with minor effects on dopamine turnover [FIG. 10A-FIG. 10B]. Treatment with 3.6 mg/mL AV7624 decreased 5-HT by 20% and 5-HIAA by about 18% in the SN [TABLE 7], resulting in a minor effect on serotonin turnover [TABLE 8]. NE levels in the SN were decreased (17% and 13%) by both dosages (1.2 mg/mL and 3.6 mg/mL) versus vehicle treated rats, respectively [TABLE 7].

[3] = Plasma levels by LC-MS/MS after subcutaneous administration; assay type: in vivo, rat; conditions: for Cmax: rat, plasma, sc, read-out: maximum plasma levels
[4] = rat, in vivo, sc, 100 mg/kg
MN9D neuronal cells [5] = test: LIVE/DEAD and JC-1 assays for toxicity and loss of mitochondrial potentials; conditions: 100 nM, 1 and 3 hours post treatment
Description: (§3) Testing involved permutations of size and diversifying amino acid sequence at each residue position. Sequence design began with Proline-Proline-Glutamate-Alanine-Proline-Alanine-Glutamate-Aspartate-Arginine-Serine-Leucine-NH2. […] These properties were tested using the dopaminergic MN9D neuronal cell line. Each candidate peptide sequence was dissolved in citrate buffer and added to MN9D cells (Choi et al., 1992) that were cultured in Dulbecco's Modified Eagle's Medium [DMEM (containing pyridoxol HCl); Sigma, St. Louis, MO] supplemented with 10% Fetal Bovine serum (HyClone, Logan, UT), 50 U/ml penicillin and streptomycin to a final 100 nM concentration. Using LIVE/DEAD and JC-1 assays in MN9D neuronal cells, individual library sequences were measured for toxicity and loss of mitochondrial potentials at 1 and 3 hours post treatment. […] The remaining sequences were then tested for their ability to provide protection against neurotoxins rotenone, 1-methyl-4-phenylpyridinium (MPP+), and trichloromethyl-1,2,3,4-tetrahydro-β-carboline (TaClo).

MN9D neuronal cells [6] = test: Protection of mitochondrial potentials against rotenone, MPP+ and TaClo-induced cytotoxicity; assay type: cell-based; conditions: 100 nM pretreatment, 1, 3, 12, 24 hours
Description: as §3

depression = conditions: person, intranasal spray 50 mg daily for 270 days
Description: A person presents with the diagnosis of depression. They are administered peptide by intranasal spray at a dosage of 50 mg daily for 270 days. At 1, 90, 180, 270 and 360 days they are tested/retested with a battery of mental status tests including Hamilton Depression Scale (HAMD), Mini Mental Status Exam (MMSE), Beck Depression Index (BDI), Montgomery-Asberg Depression Rating Scale (MADRS), Clinical Global Impression Scale (CGI), Patient Global Impression Scale (PGI), Structural Clinical Interview for Diagnostic and Statistic Manual of Mental Disorders IV (SCID).

[7] = 1.1 mg/mL intranasal, striatum, relative to saline vehicle treated rats
[8] = 1.1 mg/mL repeated intranasal, striatum, relative to saline treated rats
[9] = SN, depending on the dosage, relative to saline vehicle treated rats

For `CC(C)C[C@H](N)C(=O)N[C@@H](C)C(=O)N1CCC[C@H]1C(=O)N[C@@H](C)C(=O)N[C@@H](CCC(=O)O)C(=O)N[C@@H](CC(=O)O)C(N)=O` [AV6403, Leu-Ala-Pro-Ala-Glu-Asp-NH2] (H-LAPAED-NH2; N-terminus assumed), the “increase in dopamine turnover [(HVA+DOPAC)/DA]” value [1, 7] was 16%, the “increase in dopamine turnover [DOPAC/DA]” value [1, 7] was 22% and the “reduction of DA levels” value [1, 7] was 20%. The “reduction of HVA levels” value [1, 7] was 25%, the “reduction of NE levels” value ([1]; 1.1 mg/mL intranasal, striatum, versus vehicle) was roughly 36% and the “increase in turnover [5-HIAA/5-HT]” value [1, 8] was 19%. The “reduction of 5-HIAA” value [1, 8] was roughly 19%, the “reduction of 5-HT” value [1, 8] was roughly 32% and the “Turnover ratio 5-H1AA/5-HT” value ([1]; 1.1 mg/ml intranasal) was 1.28. For the same molecule, the “Turnover ratio (HVA + DOPAC)/DA” value ([1]; 1.1 mg/ml intranasal) was 0.36, the “Turnover ratio DOPAC/DA” value ([1]; 1.1 mg/ml intranasal) was 0.28 and the “Turnover ratio HVA/DA” value ([1]; 1.1 mg/ml intranasal) was 0.08. It also gave a 5-HIAA ([1]; 1.1 mg/ml intranasal) of 326 ng/g, a 5-HT ([1]; 1.1 mg/ml intranasal) of 257 ng/g and a DA ([1]; 1.1 mg/ml intranasal) of 9425 ng/g. The DOPAC ([1]; 1.1 mg/ml intranasal) was 2618 ng/g, the HVA ([1]; 1.1 mg/ml intranasal) was 699 ng/g and the NE ([1]; 1.1 mg/ml intranasal) was 45 ng/g. The “changes in DA turnover” value ([1]; 3.5 mg/mL intranasal, striatum) was “minor changes”, the “increase of striatal DA levels” value ([1]; 3.5 mg/mL intranasal, striatum) was 8% and the “increase of striatal DOPAC levels” value ([1]; 3.5 mg/mL intranasal, striatum) was 11%. The “Turnover ratio 5-H1AA/5-HT” value ([1]; 3.5 mg/ml intranasal) was 1.11, the “Turnover ratio (HVA + DOPAC)/DA” value ([1]; 3.5 mg/ml intranasal) was 0.31 and the “Turnover ratio DOPAC/DA” value ([1]; 3.5 mg/ml intranasal) was 0.23. For the same molecule, the “Turnover ratio HVA/DA” value ([1]; 3.5 mg/ml intranasal) was 0.08, the 5-HIAA ([1]; 3.5 mg/ml intranasal) was 437 ng/g and the 5-HT ([1]; 3.5 mg/ml intranasal) was 393 ng/g. The DA ([1]; 3.5 mg/ml intranasal) was 12475 ng/g, the DOPAC ([1]; 3.5 mg/ml intranasal) was 2922 ng/g and the HVA ([1]; 3.5 mg/ml intranasal) was 935 ng/g. The NE ([1]; 3.5 mg/ml intranasal) was 66 ng/g, the “change of 5-HT, 5-HIAA and turnover” value ([1]; higher dosage (3.5 mg/mL) intranasal, striatum, relative to saline treated rats) was “small increases” and the “decrease of 5-HT” value ([2]; 1.1 mg/mL intranasal, SN) was 10%. The “increase in serotonin turnover [5-HIAA/5-HT]” value ([2]; 1.1 mg/mL intranasal, SN) was 16%, the “increase in dopamine turnover [(HVA+DOPAC)/DA]” value ([2]; 1.1 mg/mL intranasal, SN, relative to saline vehicle treated rats) was 23% and the “Turnover ratio 5-HIAA/5-HT” value ([2]; 1.1 mg/ml intranasal) was 0.58. For the same molecule, the “Turnover ratio (HVA + DOPAC)/DA” value ([2]; 1.1 mg/ml intranasal) was 0.37, the “Turnover ratio DOPAC/DA” value ([2]; 1.1 mg/ml intranasal) was 0.22 and the “Turnover ratio HVA/DA” value ([2]; 1.1 mg/ml intranasal) was 0.15. It also gave a 5-HIAA ([2]; 1.1 mg/ml intranasal) of 552 ng/g, a 5-HT ([2]; 1.1 mg/ml intranasal) of 1014 ng/g and a DA ([2]; 1.1 mg/ml intranasal) of 1122 ng/g. It also gave a DOPAC ([2]; 1.1 mg/ml intranasal) of 232 ng/g, an HVA ([2]; 1.1 mg/ml intranasal) of 102 ng/g and an NE ([2]; 1.1 mg/ml intranasal) of 554 ng/g. For the same molecule, the “increase in dopamine turnover [DOPAC/DA]” value ([2]; 3.5 mg/mL intranasal, SN, relative to saline vehicle treated rats) was 20%, the “increase of NE levels” value ([2]; 3.5 mg/mL intranasal, SN, versus vehicle treated rats) was “about 23%” and the “Turnover ratio 5-HIAA/5-HT” value ([2]; 3.5 mg/ml intranasal) was 0.54. For the same molecule, the “Turnover ratio (HVA + DOPAC)/DA” value ([2]; 3.5 mg/ml intranasal) was 0.34, the “Turnover ratio DOPAC/DA” value ([2]; 3.5 mg/ml intranasal) was 0.24 and the “Turnover ratio HVA/DA” value ([2]; 3.5 mg/ml intranasal) was 0.11. It also gave a 5-HIAA ([2]; 3.5 mg/ml intranasal) of 546 ng/g, a 5-HT ([2]; 3.5 mg/ml intranasal) of 1050 ng/g and a DA ([2]; 3.5 mg/ml intranasal) of 1096 ng/g. For the same molecule, the DOPAC ([2]; 3.5 mg/ml intranasal) was 253 ng/g, the HVA ([2]; 3.5 mg/ml intranasal) was 113 ng/g and the NE ([2]; 3.5 mg/ml intranasal) was 644 ng/g. The “increase in DOPAC” value [2, 9] was roughly 13%, the “reduction of HVA” value [2, 9] was 11% and the “plasma lifetime as compared to the extracellular brain levels” value ([3]; 30 and 100 mg/kg s.c.) was “longer lifetime”. The “time of maximum plasma levels post administration” value ([3]; 30 and 100 mg/kg s.c.) was 20 to 40 min, the Cmax ([3]; 30 mg/kg s.c.) was 3500 ng/mL and the Cmax ([3]; 100 mg/kg s.c.) was 6000 ng/mL. It also gave a half-life [4] of 50 to 60 min.
With `C[C@H](NC(=O)[C@@H]1CCCN1C(=O)[C@H](C)NC(=O)[C@@H](N)CCC(=O)O)C(=O)N[C@@H](CCC(=O)O)C(=O)N[C@@H](CC(=O)O)C(N)=O` [SEQ ID NO: 11, Glutamate-Alanine-Proline-Alanine-Glutamate-Aspartate-NH2] (H-EAPAED-NH2; N-terminus assumed) the toxicity (MN9D neuronal cells [5]) was “low toxicity” and the “protection against neurotoxins (rotenone, MPP+, TaClo)” value (MN9D neuronal cells [6]) was “protection against neurotoxin exposure at all time points measured”.
For “Ac-Leucine-D-Methionine-Proline-Alanine-deuterated Serine-Phenylalanine [SEQ ID NO: 9]”, the “HAMD from day 1 over 360 days” value (depression) was “improvement in HAMD”.
